Laboratory results published in publication PMC7413254 (Nature Communications, 2020).
Like-named read-outs stand apart in the source and are kept apart here.

How the values were obtained:
PfCRT^Dd2 [1] = molecular target: T1, PfCRT^Dd2 (Plasmodium falciparum, UniProt Q9N623, A220S/I356T/K76T/M74I/N326S/N75E/Q271E/R371I); assay: [3H]CQ uptake into Xenopus oocytes, cis-inhibition by unlabelled solute; format: cell-based
Procedure, shortened: (§1)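 Washed oocytes (ten per treatment) were exposed to label in pH 5.5 ND96 for 1.5 h at 27.5 °C. Buffer was then removed, cells rinsed in ice-cold ND96, lysed in SDS and counted.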

PfCRT^Ecu1110 [2] = molecular target: T2, PfCRT^Ecu1110 (Plasmodium falciparum, UniProt Q9N623, A220S/I356L/K76T/N326D); assay: as above; format: cell-based
Procedure, shortened: as §1

PfCRT^3D7 [3] = molecular target: T3, PfCRT^3D7 (Plasmodium falciparum, UniProt Q8IBZ9); assay: cell-based; format: cell-based; conditions: total [3H]CQ transport; for inhibition at 500 µM: [test solute] = 0.5 mM; for inhibition at 1000 µM: [test solute] = 1 mM; for inhibition at 2000 µM: [test solute] = 2 mM
Procedure, shortened: as §1

PfCRT^3D7 [4] = molecular target: T3, PfCRT^3D7; assay: cell-based; format: cell-based
Procedure, shortened: (§2)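 Transport measured in Xenopus oocytes expressing the transporters, 1.5 h at 27.5 °C in ND96 pH 5.5 unless noted. For trans-stimulation, VF-6 injected in 25 nL ND96 at pH 5.0–7.0 or Na^+-free (choline) buffer; intracellular levels based on ~400 nL oocyte volume. Ten oocytes per treatment, ≥4 experiments.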

PfCRT^Dd2 [5] = molecular target: T1, PfCRT^Dd2; assay: cell-based; format: cell-based; conditions: […]
Procedure, shortened: as §2

PfNT1 = molecular target: T4, PfNT1 (Plasmodium falciparum, UniProt Q8IDM6); assay: cell-based; format: cell-based; conditions: for activity at 5000 µM: total [3H]CQ transport
T4 construct: expressed in transfected cells; host or cells: Xenopus laevis oocytes (stage V-VI), cRNA-injected
Procedure, shortened: as §2

PfCRT^Ecu1110 [6] = molecular target: T2, PfCRT^Ecu1110; assay: cell-based; format: cell-based; conditions: […]
Procedure, shortened: as §2

PfCRT [7] = assay: Test of solutes as potential co-substrates for influx of VF-6 via PfCRT into the oocyte; format: cell-based, Plasmodium falciparum; parameters: key: X: Compounds that have been tested as potential co-substrates but are not required for influx of VF-6 via PfCRT into the oocyte; conditions: X = tested
non-expressing oocytes [8] = format: cell-based, Xenopus laevis; conditions: total [3H]CQ transport; for Uptake of [3H]CQ (% non-expressing oocyte control), trans-stimulation: non-expressing oocytes, normalised to the oocyte type control; for Uptake of [3H]CQ (% PfCRTDd2 control), trans-stimulation, non-expressing oocytes: mean ± SEM, SEM
Procedure, shortened: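 Oocytes (ten per treatment, ≥4 independent frogs/days) were preloaded by injecting VF-6 in 25 nL ND96 at pH 5.0, 5.5, 6.0 or 7.0, or Na^+-free choline buffer, then uptake run 1.5 h, 27.5 °C, ND96 pH 5.5 by default. Internal concentrations assumed ~400 nL oocyte volume.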

PfCRT [9] = assay: Potential co-substrates tested for influx of VF-6 via PfCRT into the oocyte; format: cell-based, Plasmodium falciparum; parameters: key: X: Compounds that have been tested as potential co-substrates but are not required for influx of VF-6 via PfCRT into the oocyte
non-expressing oocytes [10] = assay: cells; format: cell-based, Xenopus laevis; conditions: Xenopus laevis, total [3H]CQ transport; for inhibition at 500 µM: [test solute] = 0.5 mM; for inhibition at 1000 µM: [test solute] = 1 mM; for inhibition at 2000 µM: [test solute] = 2 mM
Procedure, shortened: as §1

[11] = read-out: PfCRT-mediated [3H]CQ transport, cis-inhibition (% PfCRTDd2 control)
[12] = read-out: Uptake of [3H]CQ (% PfCRTDd2 control), cis-inhibition, PfCRTDd2, SEM
[13] = read-out: PfCRT-mediated [3H]CQ transport, cis-inhibition (% PfCRTEcu1110 control)
[14] = read-out: Uptake of [3H]CQ (% PfCRTDd2 control), cis-inhibition, PfCRTEcu1110, SEM
[15] = read-out: Uptake of [3H]CQ (% PfCRTEcu1110 control), cis-inhibition
[16] = read-out: [3H]CQ transport (% PfCRTEcu1110 control), cis-inhibition, PfCRTEcu1110, SEM
[17] = PfCRT3D7 oocytes, normalised to the oocyte type control, read-out: Uptake of [3H]CQ (% PfCRT3D7 control), cis-inhibition
[18] = mean ± SEM, SEM, read-out: Uptake of [3H]CQ (% PfCRTDd2 control), cis-inhibition, PfCRT3D7
[19] = Oocyte, mean ± SEM, SEM, read-out: Uptake of [3H]CQ (% PfCRTDd2 control), cis-inhibition, non-expressing oocytes
[20] = non-expressing oocytes, normalised to the oocyte type control, read-out: Uptake of [3H]CQ (% non-expressing oocyte control), cis-inhibition

T2 sequence (Q9N623 whole entry A220S/I356L/K76T/N326D): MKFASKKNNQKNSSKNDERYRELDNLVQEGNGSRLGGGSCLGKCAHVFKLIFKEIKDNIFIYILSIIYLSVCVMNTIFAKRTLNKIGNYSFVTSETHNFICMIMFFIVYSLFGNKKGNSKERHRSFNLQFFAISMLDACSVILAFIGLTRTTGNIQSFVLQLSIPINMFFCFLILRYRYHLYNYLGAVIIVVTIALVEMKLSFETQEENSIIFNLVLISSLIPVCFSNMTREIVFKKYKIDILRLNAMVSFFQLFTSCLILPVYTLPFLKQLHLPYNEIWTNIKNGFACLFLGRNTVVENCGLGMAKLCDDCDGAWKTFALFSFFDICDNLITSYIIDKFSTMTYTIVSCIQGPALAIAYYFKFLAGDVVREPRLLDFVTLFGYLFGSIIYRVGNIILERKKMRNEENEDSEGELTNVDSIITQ
T3 sequence (Q8IBZ9 59-398): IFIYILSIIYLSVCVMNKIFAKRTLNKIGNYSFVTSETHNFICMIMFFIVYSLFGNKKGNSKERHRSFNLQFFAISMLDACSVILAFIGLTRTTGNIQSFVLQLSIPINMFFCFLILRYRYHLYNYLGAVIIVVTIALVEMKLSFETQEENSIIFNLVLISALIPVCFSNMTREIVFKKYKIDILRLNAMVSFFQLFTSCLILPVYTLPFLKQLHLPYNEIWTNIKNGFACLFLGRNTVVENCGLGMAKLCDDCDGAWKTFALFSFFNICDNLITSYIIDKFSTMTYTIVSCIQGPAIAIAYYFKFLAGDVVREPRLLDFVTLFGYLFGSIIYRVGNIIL
T4 sequence (Q8IDM6 whole entry): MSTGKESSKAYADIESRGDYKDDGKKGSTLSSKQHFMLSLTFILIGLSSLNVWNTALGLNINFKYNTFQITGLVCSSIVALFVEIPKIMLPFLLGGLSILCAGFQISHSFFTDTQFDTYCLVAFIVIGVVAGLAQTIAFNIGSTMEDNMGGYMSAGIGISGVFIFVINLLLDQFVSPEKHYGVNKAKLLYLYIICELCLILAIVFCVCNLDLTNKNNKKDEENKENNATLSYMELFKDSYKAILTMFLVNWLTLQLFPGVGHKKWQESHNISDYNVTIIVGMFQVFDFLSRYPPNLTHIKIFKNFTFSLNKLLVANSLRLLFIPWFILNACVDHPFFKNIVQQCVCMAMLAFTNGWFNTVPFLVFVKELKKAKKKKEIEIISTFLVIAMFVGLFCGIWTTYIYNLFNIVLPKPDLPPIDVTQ
T1 sequence (Q9N623 whole entry A220S/I356T/K76T/M74I/N326S/N75E/Q271E/R371I): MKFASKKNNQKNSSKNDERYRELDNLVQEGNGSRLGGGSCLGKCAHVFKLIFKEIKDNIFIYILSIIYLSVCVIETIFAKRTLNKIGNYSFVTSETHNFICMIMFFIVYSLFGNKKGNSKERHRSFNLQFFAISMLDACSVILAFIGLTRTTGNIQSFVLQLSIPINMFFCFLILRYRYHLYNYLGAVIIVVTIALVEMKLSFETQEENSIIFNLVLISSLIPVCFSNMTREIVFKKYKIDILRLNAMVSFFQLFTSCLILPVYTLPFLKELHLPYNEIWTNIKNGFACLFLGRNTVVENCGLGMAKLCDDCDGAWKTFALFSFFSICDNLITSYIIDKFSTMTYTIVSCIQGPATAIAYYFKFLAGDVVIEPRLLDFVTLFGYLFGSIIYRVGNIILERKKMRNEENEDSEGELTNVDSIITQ

N[C@@H](Cc1c[nH]cn1)C(=O)O [L-histidine]
inhibition at 500 µM (PfCRT^Dd2 [1]; [11]): 96 ± 3.6% | inhibition at 1000 µM (PfCRT^Dd2 [1]; [11]): 97 ± 4.1% | inhibition at 500 µM (PfCRT^Dd2 [1]; [12]): 98 ± 9.7% | inhibition at 1000 µM (PfCRT^Dd2 [1]; [12]): 99 ± 4.2% | inhibition at 2000 µM (PfCRT^Dd2 [1]; [12]): 100 ± 2.2% | inhibition at 500 µM (PfCRT^Ecu1110 [2]; [13]): 95 ± 1.5% | inhibition at 1000 µM (PfCRT^Ecu1110 [2]; [13]): 94 ± 3.2% | inhibition at 2000 µM (PfCRT^Ecu1110 [2]; [13]): 98 ± 2.6% | inhibition at 500 µM (PfCRT^Ecu1110 [2]; [14]): 32 ± 1.4% | inhibition at 1000 µM (PfCRT^Ecu1110 [2]; [14]): 31 ± 2.1% | inhibition at 2000 µM (PfCRT^Ecu1110 [2]; [14]): 33 ± 1% | inhibition at 500 µM (PfCRT^Ecu1110 [2]; [15]): 97 ± 5.6% | inhibition at 1000 µM (PfCRT^Ecu1110 [2]; [15]): 96 ± 4.6% | inhibition at 2000 µM (PfCRT^Ecu1110 [2]; [15]): 100 ± 8.2% | inhibition at 500 µM (PfCRT^Ecu1110 [2]; [16]): 29 ± 0.4% | inhibition at 1000 µM (PfCRT^Ecu1110 [2]; [16]): 28 ± 0.2% | inhibition at 2000 µM (PfCRT^Ecu1110 [2]; [16]): 30 ± 1.3% | inhibition at 500 µM (PfCRT^3D7 [3]; [17]): 99 ± 5.2% | inhibition at 1000 µM (PfCRT^3D7 [3]; [17]): 99 ± 3.6% | inhibition at 2000 µM (PfCRT^3D7 [3]; [17]): 101 ± 4.7% | inhibition at 500 µM (PfCRT^3D7 [3]; [18]): 3.7 ± 0.02% | inhibition at 1000 µM (PfCRT^3D7 [3]; [18]): 2.8 ± 0.02% | inhibition at 2000 µM (PfCRT^3D7 [3]; [18]): 2.8 ± 0.03% | activity at 5000 µM (PfCRT^3D7 [4]; PfCRT3D7 oocytes, [test solute]i = 5 mM, total [3H]CQ transport, normalised to the oocyte type control, read-out: Uptake of [3H]CQ (% PfCRT3D7 control), trans-stimulation): 97 ± 3.6% | [3H]CQ transport (% PfCRT3D7 control), trans-stimulation, PfCRT3D7 (PfCRT^3D7 [4]; SEM): 0.2 ± 0.01 % PfCRT3D7 control | activity at 5000 µM (PfCRT^3D7 [4]; [test solute]i = 5 mM (intracellular), PfCRT3D7 oocytes, normalised to oocyte type control, read-out: PfCRT-mediated [3H]CQ transport, trans-stimulation (% PfCRT3D7 control)): 95 ± 2.9% | activity at 45000 µM (PfCRT^3D7 [4]; SEM, read-out: Uptake of [3H]CQ (% PfCRTDd2 control), trans-stimulation, PfCRT3D7): 3.3 ± 0.02% | activity at 45000 µM (PfCRT^3D7 [4]; read-out: PfCRT-mediated [3H]CQ transport, trans-stimulation (% PfCRT3D7 control)): 97 ± 2.2% | activity at 45000 µM (PfCRT^3D7 [4]; read-out: Uptake of [3H]CQ (% PfCRT3D7 control), trans-stimulation): 99 ± 3.7% | activity at 5000 µM (PfCRT^3D7 [4]; total [3H]CQ transport, [test solute]i = 5 mM (intracellular), mean ± SEM, SEM, read-out: Uptake of [3H]CQ (% PfCRTDd2 control), trans-stimulation, PfCRT3D7): 3.2 ± 0.09% | activity at 5000 µM (PfCRT^Dd2 [5]; pH 5.5, read-out: Uptake of [3H]CQ (% PfCRTDd2 control), trans-stimulation, PfCRTDd2, total [3H]CQ transport, [test solute]i = 5 mM (intracellular), mean ± SEM, SEM): 101 ± 2.2% | activity at 5000 µM (PfCRT^Dd2 [5]; pH 5.5, read-out: Uptake of [3H]CQ (% PfCRTDd2 control), trans-stimulation, PfCRTDd2 oocytes, [test solute]i = 5 mM, total [3H]CQ transport, normalised to the oocyte type control): 101 ± 2.2% | activity at 45000 µM (PfCRT^Dd2 [5]; pH 5.5, read-out: Uptake of [3H]CQ (% PfCRTDd2 control), trans-stimulation, PfCRTDd2 oocytes, [test solute]i = 45 mM (30 mM for some solutes due to solubility), total [3H]CQ transport, normalised to the oocyte type control): 97 ± 3.2% | activity at 5000 µM (PfNT1; PfNT1 oocytes, [test solute]i = 5 mM, normalised to the oocyte type control, read-out: Uptake of [3H]CQ (% PfNT1 control), trans-stimulation): 99 ± 3.3% | activity at 45000 µM (PfNT1; SEM, read-out: Uptake of [3H]CQ (% PfCRTDd2 control), trans-stimulation, PfNT1): 2.6 ± 0.04% | activity at 45000 µM (PfNT1; read-out: Uptake of [3H]CQ (% PfNT1 control), trans-stimulation): 99 ± 4.2% | activity at 5000 µM (PfNT1; [test solute]i = 5 mM (intracellular), mean ± SEM, SEM, read-out: Uptake of [3H]CQ (% PfCRTDd2 control), trans-stimulation, PfNT1): 2.2 ± 0.09% | activity at 5000 µM (PfCRT^Ecu1110 [6]; pH 5.5, read-out: Uptake of [3H]CQ (% PfCRTEcu1110 control), trans-stimulation, PfCRTEcu1110 oocytes, [test solute]i = 5 mM, total [3H]CQ transport, normalised to the oocyte type control): 100 ± 3.6% | activity at 45000 µM (PfCRT^Ecu1110 [6]; pH 5.5, read-out: Uptake of [3H]CQ (% PfCRTEcu1110 control), trans-stimulation, PfCRTEcu1110 oocytes, [test solute]i = 45 mM (30 mM for some solutes due to solubility), total [3H]CQ transport, normalised to the oocyte type control): 99 ± 3% | activity at 5000 µM (PfCRT^Ecu1110 [6]; read-out: Uptake of [3H]CQ (% PfCRTDd2 control), trans-stimulation, PfCRTEcu1110, total [3H]CQ transport, [test solute]i = 5 mM (intracellular), mean ± SEM, SEM): 36 ± 1.3% | activity at 45000 µM (PfCRT^Ecu1110 [6]; read-out: Uptake of [3H]CQ (% PfCRTDd2 control), trans-stimulation, PfCRTEcu1110, total [3H]CQ transport, [test solute]i = 45 mM (intracellular; 30 mM for some solutes due to solubility), mean ± SEM, SEM): 35 ± 2.5% | Tested as potential co-substrate but not required for influx of VF-6 via PfCRT into the oocyte (PfCRT [7]): X | Uptake of [3H]CQ (% non-expressing oocyte control), trans-stimulation (non-expressing oocytes [8]; [test solute]i = 5 mM): 99 ± 3.6 % non-expressing oocyte control | Uptake of [3H]CQ (% non-expressing oocyte control), trans-stimulation (non-expressing oocytes [8]; [test solute]i = 45 mM (30 mM for some solutes due to solubility)): 100 ± 4.8 % non-expressing oocyte control | Uptake of [3H]CQ (% PfCRTDd2 control), trans-stimulation, non-expressing oocytes (non-expressing oocytes [8]; [test solute]i = 5 mM (intracellular)): 3.0 ± 0.06 % PfCRTDd2 control | Uptake of [3H]CQ (% PfCRTDd2 control), trans-stimulation, non-expressing oocytes (non-expressing oocytes [8]; [test solute]i = 45 mM (intracellular; 30 mM for some solutes due to solubility)): 2.5 ± 0.01 % PfCRTDd2 control | Tested as potential co-substrate but not required for influx of VF-6 via PfCRT into the oocyte (PfCRT [9]): X | inhibition at 500 µM (non-expressing oocytes [10]; [19]): 2.4 ± 0.06% | inhibition at 1000 µM (non-expressing oocytes [10]; [19]): 2.8 ± 0.07% | inhibition at 2000 µM (non-expressing oocytes [10]; [19]): 2.6 ± 0.05% | inhibition at 500 µM (non-expressing oocytes [10]; [20]): 96 ± 4.3% | inhibition at 1000 µM (non-expressing oocytes [10]; [20]): 99 ± 3.7% | inhibition at 2000 µM (non-expressing oocytes [10]; [20]): 99 ± 4.7%
